Data taken from patent publication US11596639B2, “Substituted indole Mcl-1 inhibitors” (Vanderbilt University, priority 2016, dated 2023).
Read-outs that look alike come from different tables or passages of the source.

Experiments:
[1] = tested on: H929 human cancer cell lines; experiment: Cellular viability / proliferation (Cell TiterGlo, 72 h); assay type: cell-based
Procedure, shortened: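 1,000 cells/well, 10% FBS medium; compound added at 24 h, 2-fold dilutions from 50 μM top, DMSO <1% final. 72 h exposure, CellTiterGlo 30 min RT dark, luminescence read. IC50 by 4-parameter fit.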

Mcl-1 = Mcl-1 (Homo sapiens (Human), UniProt Q07820); experiment: Fluorescence polarization anisotropy (FPA) competition assay, FITC-Bak or FITC-Bim BH3 peptide; assay type: binding; details: read-out: Ki for Inhibition of Mcl-1 by FPA assay
Mcl-1, sequence (Q07820 172-327): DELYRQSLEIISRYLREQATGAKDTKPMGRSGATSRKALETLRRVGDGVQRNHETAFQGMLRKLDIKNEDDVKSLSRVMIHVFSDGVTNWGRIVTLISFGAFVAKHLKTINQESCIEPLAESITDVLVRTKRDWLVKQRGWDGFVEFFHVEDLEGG

[2] = Homo sapiens, NCI-H929, 72 h, read-out: GI50 on cellular proliferation of H929 human cancer cell lines, H929 cells, 72 h, Cell TiterGlo, 10% FBS

| SMILES | GI50 ([1]; read-out: GI50 on cellular proliferation of H929 human cancer cell lines, H929 cells, 72 h, Cell TiterGlo, 10% FBS) | Ki (Mcl-1) | GI50 [1, 2] |
| --- | --- | --- | --- |
| Cc1cc(OCCCc2c3n(c4c(-c5c(C)nn(C)c5C)c(Cl)ccc24)[C@H](C)CN(c2cccc4cc(C(N)=O)n(C)c24)C3=O)cc(C)c1Cl [Example 270, 7-[(4R)-7-chloro-10-[3-(4-chloro-3,5-dimethyl-phenoxy)propyl]-4-methyl-1-oxo-6-(1,3,5-trimethylpyrazol-4-yl)-3,4-dihydropyrazino[1,2-a]indol-2-yl]-1-methyl-indole-2-carboxamide] | 310 nM | 1.1 nM |  |
| Cc1cc(OCCCc2c3n(c4c(-c5c(C)nn(C)c5C)c(Cl)ccc24)[C@H](C)CN(c2nn(CCN4CCOCC4)c4cc(C(=O)O)ccc24)C3=O)cc(C)c1Cl [Example 50, (R)-3-(7-chloro-10-(3-(4-chloro-3,5-dimethylphenoxy)propyl)-4-methyl-1-oxo-6-(1,3,5-trimethyl-1H-pyrazol-4-yl)-3,4-dihydropyrazino[1,2-a]indol-2(1H)-yl)-1-(2-morpholinoethyl)-1H-indazole-6-carboxylic acid] |  | < 1 nM | 710 nM |
| Cc1cc(OCCCc2c3n(c4c(-c5c(C)nc(CN6CCOCC6)nc5C)c(Cl)ccc24)[C@H](C)CN(c2cn(C)c4ccc(C(=O)O)cc24)C3=O)cc(C)c1Cl [Example 398, (R)-3-(7-Chloro-10-(3-(4-chloro-3,5-dimethylphenoxy)propyl)-6-(4,6-dimethyl-2-(morpholinomethyl)pyrimidin-5-yl)-4-methyl-1-oxo-3,4-dihydropyrazino[1,2-a]indol-2(1H)-yl)-1-methyl-1H-indole-5-carboxylic acid] |  | < 1 nM | 200 nM |
| Cc1cc(OCCCc2c3n(c4c(-c5c(C)nn(C)c5C)c(Cl)ccc24)[C@H](C)CN(c2cn(C)c4ccc(-c5ncn(CC6CC6)n5)cc24)C3=O)cc(C)c1Cl [Example 462, (R)-7-Chloro-10-(3-(4-chloro-3,5-dimethylphenoxy)propyl)-2-(5-(1-(cyclopropylmethyl)-1H-1,2,4-triazol-3-yl)-1-methyl-1H-indol-3-yl)-4-methyl-6-(1,3,5-trimethyl-1H-pyrazol-4-yl)-3,4-dihydropyrazino[1,2-a]indol-1(2H)-one] |  | 2 nM | 990 nM |
| Cc1cc(OCCCc2c3n(c4c(-c5c(C)nn(C)c5C)c(Cl)ccc24)[C@H](C)CN(c2cn(CCN(C)C)c4cc(C(=O)O)ccc24)C3=O)cc(C)c1Cl [Example 340, (R)-3-(7-Chloro-10-(3-(4-chloro-3,5-dimethylphenoxy)propyl)-4-methyl-1-oxo-6-(1,3,5-trimethyl-1H-pyrazol-4-yl)-3,4-dihydropyrazino[1,2-a]indol-2(1H)-yl)-1-(2-(dimethylamino)ethyl)-1H-indole-6-carboxylic acid] |  | 4.4 nM | 1800 nM |
| Cc1cc(OCCCc2c3n(c4c(-c5c(C)nn(C)c5C)c(Cl)ccc24)[C@H](C)CN(c2cn(C)c4ccc(-c5ncccn5)cc24)C3=O)cc(C)c1Cl [Example 394, (R)-7-Chloro-10-(3-(4-chloro-3,5-dimethylphenoxy)propyl)-4-methyl-2-(1-methyl-5-(pyrimidin-2-yl)-1H-indol-3-yl)-6-(1,3,5-trimethyl-1H-pyrazol-4-yl)-3,4-dihydropyrazino[1,2-a]indol-1(2H)-one] |  | 2.8 nM | 270 nM |
| Cc1cc(OCCCc2c3n(c4c(-c5c(C)nn(C)c5C)c(Cl)ccc24)[C@H](C)CN(c2cccc4c(C(=O)O)cn(Cc5cccnc5)c24)C3=O)cc(C)c1Cl [Example 467, (R)-7-(7-Chloro-10-(3-(4-chloro-3,5-dimethylphenoxy)propyl)-4-methyl-1-oxo-6-(1,3,5-trimethyl-1H-pyrazol-4-yl)-3,4-dihydropyrazino[1,2-a]indol-2(1H)-yl)-1-(pyridin-3-ylmethyl)-1H-indole-3-carboxylic acid] |  | 1.3 nM | 1300 nM |
| Cc1cc(OCCCc2c3n(c4c(-c5c(C)nn(C)c5C)c(Cl)ccc24)[C@H](C)CN(c2cn(C)c4ccccc24)C3=O)cc(C)c1Cl [Example 288, (R)-7-chloro-10-(3-(4-chloro-3,5-dimethylphenoxy)propyl)-4-methyl-2-(1-methyl-1H-indol-3-yl)-6-(1,3,5-trimethyl-1H-pyrazol-4-yl)-3,4-dihydropyrazino[1,2-a]indol-1(2H)-one] |  | 3 nM | 8400 nM |
| COCCOc1cc(N2C[C@@H](C)n3c(c(CCCOc4cc(C)c(Cl)c(C)c4)c4ccc(Cl)c(-c5c(C)nn(C)c5C)c43)C2=O)c2c(c1)cc(C(=O)O)n2C [Example 461, (R)-7-(7-Chloro-10-(3-(4-chloro-3,5-dimethylphenoxy)propyl)-4-methyl-1-oxo-6-(1,3,5-trimethyl-1H-pyrazol-4-yl)-3,4-dihydropyrazino[1,2-a]indol-2(1H)-yl)-5-(2-methoxyethoxy)-1-methyl-1H-indole-2-carboxylic acid] |  | < 1 nM | < 200 nM |
| COCCn1c(C(=O)O)cc2c(N3C[C@@H](C)n4c(c(CCCOc5cc(C)c(Cl)c(C)c5)c5ccc(Cl)c(-c6c(C)nn(C)c6C)c54)C3=O)cccc21 [Example 353, (R)-4-(7-Chloro-10-(3-(4-chloro-3,5-dimethylphenoxy)propyl)-4-methyl-1-oxo-6-(1,3,5-trimethyl-1H-pyrazol-4-yl)-3,4-dihydropyrazino[1,2-a]indol-2(1H)-yl)-1-(2-methoxyethyl)-1H-indole-2-carboxylic acid] |  | 2.1 nM | 2900 nM |
| Cc1cc(OCCCc2c3n(c4c(-c5c(C)nn(C)c5C)c(Cl)ccc24)[C@H](C)CN(c2cc(C(=O)O)c4cnn(CCN5CCOCC5)c4c2)C3=O)cc(C)c1Cl [Example 56, (R)-6-(7-chloro-10-(3-(4-chloro-3,5-dimethylphenoxy)propyl)-4-methyl-1-oxo-6-(1,3,5-trimethyl-1H-pyrazol-4-yl)-3,4-dihydropyrazino[1,2-a]indol-2(1H)-yl)-1-(2-morpholinoethyl)-1H-indazole-4-carboxylic acid] |  | < 1 nM | 810 nM |
| Cc1cc(OCCCc2c3n(c4c(-c5c(C)nn(C)c5C)c(Cl)ccc24)[C@H](C)CN(c2ccc4cnoc4c2)C3=O)cc(C)c1Cl [Example 115, (R)-2-(benzo[d]isoxazol-6-yl)-7-chloro-10-(3-(4-chloro-3,5-dimethylphenoxy)propyl)-4-methyl-6-(1,3,5-trimethyl-1H-pyrazol-4-yl)-3,4-dihydropyrazino[1,2-a]indol-1(2H)-one] |  | 3.1 nM | 5100 nM |
| Cc1cc(OCCCc2c3n(c4c(-c5c(C)nn(CC6CCN(C)CC6)c5C)c(Cl)ccc24)[C@H](C)CN(c2cccc4c(C(=O)O)cn(C)c24)C3=O)cc(C)c1Cl [Example 137, (R)-7-(7-chloro-10-(3-(4-chloro-3,5-dimethylphenoxy)propyl)-6-(3,5-dimethyl-1-((1-methylpiperidin-4-yl)methyl)-1H-pyrazol-4-yl)-4-methyl-1-oxo-3,4-dihydropyrazino[1,2-a]indol-2(1H)-yl)-1-methyl-1H-indole-3-carboxylic acid] |  | 1.2 nM | 460 nM |
| Cc1cc(OCCCc2c3n(c4c(-c5c(C)nn(C)c5C)c(Cl)ccc24)[C@H](C)CN(c2cn(C)c4c(-c5nnn[nH]5)cccc24)C3=O)cc(C)c1Cl [Example 258, (R)-7-Chloro-10-(3-(4-chloro-3,5-dimethylphenoxy)propyl)-4-methyl-2-(1-methyl-7-(1H-tetrazol-5-yl)-1H-indol-3-yl)-6-(1,3,5-trimethyl-1H-pyrazol-4-yl)-3,4-dihydropyrazino[1,2-a]indol-1(2H)-one] |  | < 1 nM | 3600 nM |
